# Results published in PubChem BioAssay (NCI).
#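 Interpolation was linear, between the two tested concentrations surrounding the appropriate level; five concentrations were tested over 48 hours in 96-well plates. Abbreviation: GI50, concentration required for 50% inhibition of growth. TGI: total growth inhibition.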
# Legend:
# Test in all cases: inhibition of tumour cell growth, NCI panel, 48 h
# [1] = system: SNB-75 CNS
# [2] = system: HOP-92 NSCLC
# [3] = system: SF-539 CNS
# [4] = system: TK-10 renal
# [5] = system: A549 NSCLC
# [6] = system: MALME-3M melanoma
# [7] = system: SF-268 CNS
# [8] = system: UO-31 renal
# [9] = system: MDA-MB-468 breast
# [10] = system: OVCAR-5 ovarian
# [11] = system: ACHN renal
# [12] = system: CCRF-CEM leukemia
# [13] = system: EKVX NSCLC
# [14] = system: MDA-MB-231 breast
# [15] = system: MOLT-4 leukemia
# [16] = system: OVCAR-4 ovarian
# [17] = system: 786-0 renal
# [18] = system: U251 CNS
# [19] = system: HOP-62 NSCLC
# [20] = system: LOX IMVI melanoma
# [21] = system: DU-145 prostate
# [22] = system: SK-MEL-28 melanoma
# [23] = system: NCI-H460 lung
# [24] = system: MDA-MB-435
# [25] = system: OVCAR-3 ovarian
# [26] = system: NCI-H23 lung
# [27] = system: COLO 205 colon
# [28] = system: SR leukemia
# [29] = system: SW-620 colon
# [30] = system: HL-60(TB) leukemia
# [31] = system: BT-549 breast
# [32] = system: PC-3 prostate
# [33] = system: HT29 colon
# [34] = system: HCT-116 colon
# [35] = system: OVCAR-8 ovarian
# [36] = system: RPMI-8226 leukemia
# [37] = system: M14 melanoma
# [38] = system: SK-MEL-2 melanoma
# [39] = system: SNB-19 CNS
# [40] = system: UACC-62 melanoma
# [41] = system: T-47D breast
# [42] = system: SK-MEL-5 melanoma
# [43] = system: KM12 colon
# [44] = system: HCT-15 colon
# [45] = system: IGROV1 ovarian
# [46] = system: A498 renal
# [47] = system: NCI/ADR-RES ovarian
# [48] = system: MCF7 breast
# [49] = system: NCI-H522 lung
# [50] = system: HCC-2998 colon
# [51] = system: SF-295 CNS
# [52] = system: RXF 393 renal
# [53] = system: NCI-H226 lung
# [54] = system: CAKI-1 renal
# [55] = system: SK-OV-3 ovarian
# [56] = system: SN12C renal
# [57] = system: UACC-257 melanoma
# [58] = system: HS 578T breast
# [59] = system: K-562 leukemia
structure (smiles),measurement,setting,value
NS(=O)(=O)c1ccc(Nc2nc(N/N=C/c3cc(Br)c(O)c(Br)c3)nc(Nc3ccccc3)n2)cc1,GI50,[1],18.6 µM
same,TGI,[1],61.7 µM
same,GI50,[2],26.7 µM
same,TGI,[2],81.2 µM
same,GI50,[3],17.9 µM
same,TGI,[3],41.3 µM
same,GI50,[4],27.7 µM
same,TGI,[4],87 µM
same,GI50,[5],21.8 µM
same,TGI,[5],67.5 µM
same,GI50,[6],14.7 µM
same,TGI,[6],34.8 µM
same,GI50,[7],19.9 µM
same,TGI,[7],58.6 µM
same,GI50,[8],26.7 µM
same,TGI,[8],> 100 µM
same,GI50,[9],2.94 µM
same,TGI,[9],15.5 µM
same,GI50,[10],22.7 µM
same,TGI,[10],62.6 µM
same,GI50,[11],24.8 µM
same,TGI,[11],93.8 µM
same,GI50,[12],11.1 µM
same,TGI,[12],41.6 µM
same,GI50,[13],21.4 µM
same,TGI,[13],69.2 µM
same,GI50,[14],17.2 µM
same,TGI,[14],47.4 µM
same,GI50,[15],19.7 µM
same,TGI,[15],52.3 µM
same,GI50,[16],23.2 µM
same,TGI,[16],81.4 µM
same,GI50,[17],15.1 µM
same,TGI,[17],44.3 µM
same,GI50,[18],20 µM
same,TGI,[18],71 µM
same,GI50,[19],21.3 µM
same,TGI,[19],58.9 µM
same,GI50,[20],15.8 µM
same,TGI,[20],30.4 µM
same,GI50,[21],16.1 µM
same,TGI,[21],30.2 µM
same,GI50,[22],18.1 µM
same,TGI,[22],40.6 µM
same,GI50,[23],19.6 µM
same,TGI,[23],60.1 µM
same,GI50,[24],17.8 µM
same,TGI,[24],40.6 µM
same,GI50,[25],21.4 µM
same,TGI,[25],63.1 µM
same,GI50,[26],20.9 µM
same,TGI,[26],50.1 µM
same,GI50,[27],16 µM
same,TGI,[27],29.8 µM
same,GI50,[28],15.9 µM
same,TGI,[28],> 100 µM
same,GI50,[29],17.2 µM
same,TGI,[29],42.4 µM
same,GI50,[30],22 µM
same,TGI,[30],60.9 µM
same,GI50,[31],16.8 µM
same,TGI,[31],42.7 µM
same,GI50,[32],19.5 µM
same,TGI,[32],55.2 µM
same,GI50,[33],19.6 µM
same,TGI,[33],49.1 µM
same,GI50,[34],17.7 µM
same,TGI,[34],38.9 µM
same,GI50,[35],26.9 µM
same,TGI,[35],> 100 µM
same,GI50,[36],22.8 µM
same,TGI,[36],93.5 µM
same,GI50,[37],18.8 µM
same,TGI,[37],45.7 µM
same,GI50,[38],15.7 µM
same,TGI,[38],38.1 µM
same,GI50,[39],14.2 µM
same,TGI,[39],27.7 µM
same,GI50,[40],14.5 µM
same,TGI,[40],28.3 µM
same,GI50,[41],7.39 µM
same,TGI,[41],27.3 µM
same,GI50,[42],14.9 µM
same,TGI,[42],28.6 µM
same,GI50,[43],17.5 µM
same,TGI,[43],37.1 µM
same,GI50,[44],32.3 µM
same,TGI,[44],> 100 µM
same,GI50,[45],18.5 µM
same,TGI,[45],42.2 µM
same,GI50,[46],13.3 µM
same,TGI,[46],36.6 µM
same,GI50,[47],> 100 µM
same,TGI,[47],> 100 µM
same,GI50,[48],16.9 µM
same,TGI,[48],45.4 µM
same,GI50,[49],16.8 µM
same,TGI,[49],42.4 µM
same,GI50,[50],14.8 µM
same,TGI,[50],29.2 µM
same,GI50,[51],22.2 µM
same,TGI,[51],60.2 µM
same,GI50,[52],14.7 µM
same,TGI,[52],32.8 µM
same,GI50,[53],26.5 µM
same,TGI,[53],98.2 µM
same,GI50,[54],24 µM
same,TGI,[54],85.7 µM
same,GI50,[55],21.3 µM
same,TGI,[55],61.9 µM
same,GI50,[56],15.6 µM
same,TGI,[56],32.1 µM
same,GI50,[57],20.6 µM
same,TGI,[57],47.9 µM
same,GI50,[58],7.76 µM
same,TGI,[58],81.3 µM
same,GI50,[59],23.4 µM
same,TGI,[59],> 100 µM
